Laboratory results reported in patent publication US11123033B2, “Molecular imaging method for evaluating liver regeneration capacity after ALPPS operation” (Harbin Medical University, priority 2019, dated 2021).

Tested on: rabbit VX2 liver cancer model
Experiment: 18F-FCH PET/CT imaging of residual liver after first-stage ALPPS
Assay type: in vivo
Conditions: ALPPS group
Source text: using incision and fragmentation method for liver cancer tissues; first inoculating a VX2 tumor strain into the muscle outside the rabbit hind leg after passage, wherein the tumor grows to a diameter of 2.0-3.0 cm after 3 weeks; removing the tumor in the muscle of the rabbit hind, eliminating the necrotic tissue, selecting fish-like tissue at the edge of the tumor, and using ophthalmic scissors to cut the tumor tissue into tissue blocks of 1 mm3, and washing repeatedly with saline and putting in a sterile Petri dish for use; putting an experimental rabbit into general anesthesia (method of anesthesia: intramuscular injection of Shutai 1 ml) and fixing it on an animal operating table in supine position; performing skin preparation, disinfection, and spreading sterile surgical scarves on a surgical region of a rabbit abdomen; injecting lidocaine into linea alba 1 cm below xiphoid process for local anesthesia, and making a midline incision of 4 to 5 cm in an upper abdomen and cutting abdominal wall layer by layer to expose a left lateral lobe of a liver; cutting a thicker liver lobe to form a hole passage of about 3 mm×3 mm, and implanting 3-5 tumors into it, then filling liver incision with gelatin sponge particles and pressing to stop bleeding, followed by suturing the incision and closing the abdomen.
two weeks after implanting the rabbit liver with the VX2 tumor strain, performing the first stage of ALPPS (i.e. associating liverpartition and portal vein ligation for staged hepatectomy) on tumor-bearing rabbits;
dividing the tumor-bearing rabbits randomly into an ALPPS group (the left branch of the portal vein of the liver is ligated, and the liver parenchyma is dissected along the ischemic line between the left middle lobe of the liver and the right lobe of the liver) and a Sham group (i.e., a sham operation group, no portal vein ligation and liver dissection); fasting rabbits in the ALPPS group for 12 hours before surgery, and fixing on the table in the supine position after general anesthesia, and performing skin preparation in the surgical region; injecting lidocaine into the left under the xiphoid process, opening the abdomen after anesthesia around the incision with an incision length of about 5-7 cm, exposing and separating the left branch of the portal vein and ligating with 4-0 surgical sutures, then after an ischemic line between the left and right liver is formed, using the surgical scissors to cut off the liver parenchyma along the ischemic line; filling the partition with gel sponge particles for hemostasis, after no obvious bleeding, closing the abdominal wall incision layer by layer, closing the abdominal cavity, and disinfecting the incision with iodophor. […]

C[N+](C)(C[18F])CCO [18 F-FCH, [18 F] fluoromethylcholine]
18 F-FCH intake in the residual liver (after 14 days): decreases slightly
18 F-FCH uptake in the residual liver tissue (first 3 days after surgery): increases rapidly
18 F-FCH uptake in the residual liver tissue (from the 1st postoperative day, PET/CT 1 h after 37 MBq/kg i.v.): significant high uptake
time at which 18 F-FCH uptake reaches a peak (residual liver, days after surgery): around 7 days
